≈ marks a conversion by molar mass, not a printed value.
Experiment: Solubility of the active material in water
Assay type: physicochemical
Excerpt: In one embodiment, the eye drop may comprise the above-described solubilizing agent, so that an active ingredient thereof may be well dissolved and may not be precipitated even after long-term storage, thus resulting in better physical stability and chemical stability. In one embodiment, a concentration of the solubilizing agent in the eye drop may be 0.1 w/v % to 25.0 w/v %. In one embodiment, the type of the solubilizing agent may not be particularly limited, but may include, for example, at least one selected from the group consisting of surfactants, solvents, and mixtures thereof as follows. […] Thus, in one embodiment, the eye drop may comprise the solubilizing agent to dissolve 3-phenyl-4-propyl-1-(pyridin-2-yl)-1H-pyrazol-5-ol by 0.1% (1,000 μg/mL) to 2.0% (20,000 μg/mL).

solubility: ~3.4 µg/mL (≈ 12.2 µM)
SMILES: CCCc1c(-c2ccccc2)nn(-c2ccccn2)c1O [3-phenyl-4-propyl-1-(pyridin-2-yl)-1H-pyrazol-5-ol]
